*1 amine or outer side, *2 acyl side, *3 side chain or, on linkers, in order; H or OH if unused. Where a SMILES comes first, the peptide text is derived from it. Bridges are numbered along the chain shown (N, C = ends). Roman numbers before positions name the chains, in order. [ ]: non-standard residue; d: D form. Actinocin(1to9) = Cc1c2oc3c(C)ccc(C(=O)[*:2])c3nc-2c(C(=O)[*:1])c(N)c1=O; NMeV = CN[C@H](C(=O)O)C(C)C; Sar = CNCC(=O)O
Experiments:
Adenosine receptor A1 = biological target: T1, Adenosine receptor A1 (Homo sapiens, UniProt P30542); type: cell membranes, CHO, Membrane; conditions: cho;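 further: radioligand binding assay at the adenosine A1 receptor, with DPCPX serving as the labelled ligand; in other assays of this panel Not Active means under 50% inhibition at 10 µM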
T1 sequence (P30542 whole entry): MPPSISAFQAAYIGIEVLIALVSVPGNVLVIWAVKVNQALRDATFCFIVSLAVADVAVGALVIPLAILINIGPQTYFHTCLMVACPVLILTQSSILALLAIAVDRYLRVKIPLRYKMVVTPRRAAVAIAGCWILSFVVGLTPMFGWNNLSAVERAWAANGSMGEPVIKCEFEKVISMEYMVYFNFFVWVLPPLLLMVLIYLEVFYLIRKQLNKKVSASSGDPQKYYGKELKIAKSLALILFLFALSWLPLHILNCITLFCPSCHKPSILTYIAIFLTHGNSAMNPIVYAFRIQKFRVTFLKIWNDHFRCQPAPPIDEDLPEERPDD

[1] = biological target: Sodium-dependent dopamine transporter (Homo sapiens, UniProt Q01959); assay: DRUGMATRIX: Dopamine Transporter radioligand binding (ligand: [125I] RTI-55); type: cell membranes, CHO-K1, Membrane; conditions: Not Active = under 50% inhibition at 10 µM
Cytochrome P450 2A6 = biological target: T2, Cytochrome P450 2A6 (Homo sapiens, UniProt P11509); conditions: bti-tn-5b1-4; further: in other assays of this panel Not Active means under 50% inhibition at 10 µM
T2 sequence (P11509 whole entry): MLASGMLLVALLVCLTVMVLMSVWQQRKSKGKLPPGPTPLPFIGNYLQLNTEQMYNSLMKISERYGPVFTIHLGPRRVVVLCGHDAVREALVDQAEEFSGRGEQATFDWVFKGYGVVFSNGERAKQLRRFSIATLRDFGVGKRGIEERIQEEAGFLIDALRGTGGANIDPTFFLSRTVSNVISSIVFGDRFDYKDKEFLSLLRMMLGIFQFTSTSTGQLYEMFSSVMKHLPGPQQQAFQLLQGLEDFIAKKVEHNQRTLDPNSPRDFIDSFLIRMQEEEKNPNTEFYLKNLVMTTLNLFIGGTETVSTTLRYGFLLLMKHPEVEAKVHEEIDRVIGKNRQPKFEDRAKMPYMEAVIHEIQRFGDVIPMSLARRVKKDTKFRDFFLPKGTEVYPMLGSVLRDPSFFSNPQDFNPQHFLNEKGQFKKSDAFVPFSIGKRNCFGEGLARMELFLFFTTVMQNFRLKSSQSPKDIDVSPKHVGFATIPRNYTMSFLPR

[2] = biological target: Mitogen-activated protein kinase 14 (Homo sapiens, UniProt Q16539); design: species or system Escherichia coli;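 further: inhibition of p38alpha enzyme activity in a biochemical kinase assay, with myelin basic protein serving as substrate; in other assays of this panel Not Active means under 50% inhibition at 10 µM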
[3] = biological target: Aldo-keto reductase family 1 member B1 (Rattus norvegicus, UniProt P07943); assay: biochemical; type: tissue-based, Lens of camera-type eye;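 further: inhibition of aldose reductase enzyme activity, measured with DL-glyceraldehyde as the substrate; in other assays of this panel Not Active means under 50% inhibition at 10 µM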
[4] = biological target: T3, Alpha-1B adrenergic receptor (Rattus norvegicus, UniProt P15823); assay: DRUGMATRIX: Alpha-1B adrenergic receptor radioligand binding (ligand: prazosin); type: cell membranes, Wistar, Liver, Membrane; conditions: Not Active = under 50% inhibition at 10 µM
T3 sequence (P15823 whole entry): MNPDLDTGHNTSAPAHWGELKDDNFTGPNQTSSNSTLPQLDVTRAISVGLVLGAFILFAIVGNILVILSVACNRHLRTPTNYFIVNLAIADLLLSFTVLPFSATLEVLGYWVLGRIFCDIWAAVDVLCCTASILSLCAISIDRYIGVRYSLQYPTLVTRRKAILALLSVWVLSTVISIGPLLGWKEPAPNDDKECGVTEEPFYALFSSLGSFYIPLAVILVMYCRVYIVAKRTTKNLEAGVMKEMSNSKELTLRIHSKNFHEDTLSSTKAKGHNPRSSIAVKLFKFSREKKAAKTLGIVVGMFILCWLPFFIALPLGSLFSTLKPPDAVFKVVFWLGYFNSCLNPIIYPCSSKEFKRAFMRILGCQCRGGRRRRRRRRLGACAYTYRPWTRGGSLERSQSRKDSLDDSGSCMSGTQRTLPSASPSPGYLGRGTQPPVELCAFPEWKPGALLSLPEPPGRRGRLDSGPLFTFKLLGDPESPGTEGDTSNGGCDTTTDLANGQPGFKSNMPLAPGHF

Chain of Sodium-dependent dopamine transporter (Q01959 whole entry): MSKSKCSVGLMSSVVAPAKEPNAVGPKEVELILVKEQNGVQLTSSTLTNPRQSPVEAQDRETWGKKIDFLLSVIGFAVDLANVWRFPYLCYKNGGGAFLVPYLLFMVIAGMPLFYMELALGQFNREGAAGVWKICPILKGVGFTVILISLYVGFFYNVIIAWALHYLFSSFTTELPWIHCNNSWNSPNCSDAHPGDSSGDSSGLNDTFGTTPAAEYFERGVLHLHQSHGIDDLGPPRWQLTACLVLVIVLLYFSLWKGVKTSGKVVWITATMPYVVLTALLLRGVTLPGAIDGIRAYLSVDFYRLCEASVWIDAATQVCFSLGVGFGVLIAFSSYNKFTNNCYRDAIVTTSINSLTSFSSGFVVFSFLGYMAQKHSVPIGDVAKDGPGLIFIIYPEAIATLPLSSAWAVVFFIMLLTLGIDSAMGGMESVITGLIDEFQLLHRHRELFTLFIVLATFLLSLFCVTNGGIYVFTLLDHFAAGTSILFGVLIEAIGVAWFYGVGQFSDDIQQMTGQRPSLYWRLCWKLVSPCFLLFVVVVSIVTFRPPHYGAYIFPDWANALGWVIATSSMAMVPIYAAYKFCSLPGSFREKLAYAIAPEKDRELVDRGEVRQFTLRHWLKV
Chain of Mitogen-activated protein kinase 14 (Q16539 whole entry): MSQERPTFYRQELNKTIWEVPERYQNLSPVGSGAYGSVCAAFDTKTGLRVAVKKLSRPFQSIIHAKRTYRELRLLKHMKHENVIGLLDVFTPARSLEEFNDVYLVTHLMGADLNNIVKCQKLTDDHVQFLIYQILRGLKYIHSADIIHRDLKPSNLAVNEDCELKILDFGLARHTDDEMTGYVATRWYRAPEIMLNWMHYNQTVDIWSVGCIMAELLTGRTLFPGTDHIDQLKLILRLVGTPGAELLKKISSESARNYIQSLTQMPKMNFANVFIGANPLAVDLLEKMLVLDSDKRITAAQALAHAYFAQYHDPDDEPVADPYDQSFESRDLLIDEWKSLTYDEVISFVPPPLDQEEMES

Row | Molecule | IC50 (Adenosine receptor A1) | IC50 ([1]; cho-k1) | IC50 (Cytochrome P450 2A6) | Ki (Cytochrome P450 2A6) | IC50 [2] | IC50 [3] | IC50 [4] | IC50 ([1]; read-out: IC50) | Ki ([1]; read-out: Ki) | IC50 ([3]; read-out: IC50) | Ki (Adenosine receptor A1) | Ki ([1]; cho-k1) | IC50 ([2]; read-out: IC50) | Ki [3] | Ki [4]
1 | Nc1nc(N)nc(-c2cc(Cl)ccc2Cl)n1.O=C(O)/C=C\C(=O)O [IRSOGLADINE MALEATE] | Not Active | Not Active | Not Active | Not Active | Not Active | Not Active | Not Active |  |  |  |  |  |  |  | 
2 | Cc1ccc(-c2cc(C(F)(F)F)nn2-c2ccc(S(N)(=O)=O)cc2)cc1 [CELECOXIB] | Not Active |  | Not Active | Not Active | Not Active | Not Active | Not Active | 2.43 µM | 1.93 µM |  |  |  |  |  | 
3 | CCC1(c2ccc(N)cc2)CCC(=O)NC1=O (stereo unspecified) [AMINOGLUTETHIMIDE] | Not Active | Not Active | Not Active | Not Active | Not Active | Not Active | Not Active |  |  |  |  |  |  |  | 
4 | Cc1ccc(/N=C/N(C)/C=N/c2ccc(C)cc2C)c(C)c1 [AMITRAZ] | Not Active | Not Active | Not Active | Not Active | Not Active | Not Active | Not Active |  |  |  |  |  |  |  | 
5 | C[C@H](CS)C(=O)N1CCC[C@H]1C(=O)O [CAPTOPRIL] | Not Active | Not Active | Not Active | Not Active | Not Active | Not Active | Not Active |  |  |  |  |  |  |  | 
6 | CCCCN1CCCC[C@H]1C(=O)Nc1c(C)cccc1C [LEVOBUPIVACAINE] | Not Active | Not Active | Not Active | Not Active | Not Active | Not Active | Not Active |  |  |  |  |  |  |  | 
7 | OC(Cn1cncn1)(Cn1cncn1)c1ccc(F)cc1F [FLUCONAZOLE] | Not Active | Not Active | Not Active | Not Active | Not Active | Not Active | Not Active |  |  |  |  |  |  |  | 
8 | CCCC1O[C@@H]2C[C@H]3[C@@H]4CCC5=CC(=O)C=C[C@]5(C)[C@H]4[C@@H](O)C[C@]3(C)[C@]2(C(=O)CO)O1 (stereo partly specified) [BUDESONIDE] | Not Active | Not Active | Not Active | Not Active | Not Active | Not Active | Not Active |  |  |  |  |  |  |  | 
9 | Cc1cc(C2CCCCC2)n(O)c(=O)c1 [CICLOPIROX] | Not Active | Not Active | Not Active | Not Active | Not Active | Not Active | Not Active |  |  |  |  |  |  |  | 
10 | Cc1c(C)c2c(c(C)c1O)CC[C@@](C)(CCC[C@H](C)CCC[C@H](C)CCCC(C)C)O2 [ALPHA-TOCOPHEROL] | Not Active | Not Active | Not Active | Not Active | Not Active | Not Active | Not Active |  |  |  |  |  |  |  | 
11 | Cc1c2oc3c(C)ccc(C(=O)N[C@@H]4C(=O)N[C@H](C(C)C)C(=O)N5CCC[C@H]5C(=O)N(C)CC(=O)N(C)[C@@H](C(C)C)C(=O)O[C@@H]4C)c3nc-2c(C(=O)N[C@@H]2C(=O)N[C@H](C(C)C)C(=O)N3CCC[C@H]3C(=O)N(C)CC(=O)N(C)[C@@H](C(C)C)C(=O)O[C@@H]2C)c(N)c1=O [DACTINOMYCIN] (I: T[dV]P[Sar][NMeV] / II: T[dV]P[Sar][NMeV]; ester I:1-I:C, II:1-II:C; linker I:N-II:N via Actinocin(1to9)) | Not Active | Not Active | Not Active | Not Active | Not Active | Not Active | Not Active |  |  |  |  |  |  |  | 
12 | C[C@H](CCC(=O)O)[C@H]1CC[C@H]2[C@@H]3[C@H](O)C[C@@H]4C[C@H](O)CC[C@]4(C)[C@H]3C[C@H](O)[C@]12C [CHOLIC ACID] | Not Active | Not Active | Not Active | Not Active | Not Active | Not Active | Not Active |  |  |  |  |  |  |  | 
13 | CN(Cc1ccc(C(C)(C)C)cc1)Cc1cccc2ccccc12 [BUTENAFINE] | Not Active | Not Active | Not Active | Not Active | Not Active | Not Active | Not Active |  |  |  |  |  |  |  | 
14 | C[C@H]1O[C@@H](O[C@H]2[C@@H](O)C[C@H](O[C@H]3[C@@H](O)C[C@H](O[C@H]4CC[C@@]5(C)[C@H](CC[C@@H]6[C@@H]5C[C@@H](O)[C@]5(C)[C@@H](C7=CC(=O)OC7)CC[C@]65O)C4)O[C@@H]3C)O[C@@H]2C)C[C@H](O)[C@@H]1O [DIGOXIN] | Not Active | Not Active | Not Active | Not Active | Not Active | Not Active | Not Active |  |  |  |  |  |  |  | 
15 | CCCCc1nc(Cl)c(CO)n1Cc1ccc(-c2ccccc2-c2nnn[nH]2)cc1 [LOSARTAN] | Not Active | Not Active | Not Active | Not Active | Not Active | Not Active | Not Active |  |  |  |  |  |  |  | 
16 | CNCCc1ccccn1 [BETAHISTINE] | Not Active | Not Active | Not Active | Not Active | Not Active | Not Active | Not Active |  |  |  |  |  |  |  | 
17 | O=C(O)CCCc1ccc(N(CCCl)CCCl)cc1 [CHLORAMBUCIL] | Not Active | Not Active | Not Active | Not Active | Not Active |  | Not Active |  |  | 9.41 µM |  |  |  |  | 
18 | NC(=O)N1c2ccccc2CCc2ccccc21 | Not Active | Not Active | Not Active | Not Active | Not Active | Not Active | Not Active |  |  |  |  |  |  |  | 
19 | NCCCCCC(=O)O [AMINOCAPROIC ACID] | Not Active | Not Active | Not Active | Not Active | Not Active | Not Active | Not Active |  |  |  |  |  |  |  | 
20 | C=C(C)C1(O)OC(=O)C=C1OC (stereo unspecified) [PENICILLIC ACID] | Not Active | Not Active | Not Active | Not Active | Not Active | Not Active | Not Active |  |  |  |  |  |  |  | 
21 | CC1(C)O[C@@H]2C[C@H]3[C@@H]4CCC5=CC(=O)CC[C@]5(C)[C@@]4(F)[C@@H](O)C[C@]3(C)[C@]2(C(=O)CCl)O1 [HALCINONIDE] | Not Active | Not Active | Not Active | Not Active | Not Active | Not Active | Not Active |  |  |  |  |  |  |  | 
22 | LIPOPOLYSACCHARIDE E. COLI O55:B5 | Not Active | Not Active | Not Active | Not Active |  | Not Active | Not Active |  |  |  | Not Active | Not Active | 0.0606 µM | Not Active | Not Active
23 | COc1cc2c3cc1Oc1cc(ccc1O)C[C@@H]1c4c(cc(OC)c(O)c4Oc4ccc(cc4)C[C@@H]3N(C)CC2)CC[N+]1(C)C.[Cl-] | Not Active | Not Active | Not Active | Not Active | Not Active | Not Active | Not Active |  |  |  |  |  |  |  | 
24 | Cc1cc(C(C#N)c2ccc(Cl)cc2)c(Cl)cc1NC(=O)c1cc(I)cc(I)c1O (stereo unspecified) [CLOSANTEL] | Not Active |  | Not Active | Not Active |  | Not Active | Not Active | 4.8 µM | 3.8 µM |  |  |  | 0.656 µM |  | 
25 | Cc1onc(-c2ccccc2Cl)c1C(=O)N[C@@H]1C(=O)N2[C@@H]1SC(C)(C)[C@@H]2C(=O)O [CLOXACILLIN] | Not Active | Not Active | Not Active | Not Active | Not Active | Not Active | Not Active |  |  |  |  |  |  |  | 
